Data taken from patent US20060235006A1, “Combinations, methods and compositions for treating cancer” (priority 2005, published 2006).

Columns and labels:
[1] = tested on: K562 cells; experiment: Cytotoxicity of dasatinib in proliferating vs quiescent K562 cells (FIG. 3); format: cell-based; settings: Homo sapiens
[2] = tested on: quiescent K562 cultures; settings: concentrations readily achievable in the clinic
[3] = tested on: K562 cells; experiment: cells; settings: Homo sapiens, colony formation

- IC50 ([3]; K562, proliferating K562 cells): < 1 nM
- IC50 ([3]; K562, quiescent K562 cultures (nutrient depletion)): > 12 nM
SMILES: Cc1nc(Nc2ncc(C(=O)Nc3c(C)cccc3Cl)s2)cc(N2CCN(CCO)CC2)n1 [dasatinib, ′N-(2-Chloro-6-methylphenyl)-2-[[6-[4-(2-hydroxyethyl)-1-piperazinyl]-2-methyl-4-pyrimidinyl]amino]-5-thiazolecarboxamide]
- IC50 ([1]; K562, proliferating K562 cells (FIG. 3)): 0.69 nM
- IC50 ([1]; K562, quiescent K562 cells (FIG. 3)): > 11.2 nM
- % cell kill [2]: 0%
